Measured values as given in patent US5688654A, “GABA a receptor subtypes and methods for screening drug compounds using imidazoquinoxalines and pyrrolopyrimidines to bind to GABAa receptor subtypes” (Neurogen Corporation, priority 1994, dated 1997).

Tests used:
[1] = tested on: benzodiazepine binding site; conditions: Tallman et al., 1978; cited from earlier work
GABAa receptor subtype = experiment: Drug screening assay: displacement of 3H-Compound 1 from rat cortical tissue (novel GABAa receptor subtype); type: binding; conditions: Table I; 0.5 nM 3H-Compound 1, rat cortical tissue, 20 min at 4° C., buffer with 1 uM Ro 15-1788 and 10 uM muscimol; Ki by Cheng Prusoff
Protocol: The methods for screening drug compounds of the invention using the novel GABAa receptor are illustrated by the following assays for GABAa receptor subtype activity.
Assays were carried out using the tissue preparation described in Thomas and Tallman (J. Bio. Chem. 156: 9838-9842, 1983, J. Neurosci 3: 433-440, 1983). Rat cortical tissue was dissected and homogenized in 25 volumes (w/v) of 0.05M Tris HCl buffer (pH 7.4 at 4° C.). The tissue homogenate was centrifuged in the cold (4°) at 20,000×g for 20'. The supernatant was decanted and the pellet was rehomogenized in the same volume of buffer and again centrifuged at 20,000×g. The supernatant was decanted and the pellet was frozen at -20° C. overnight. The pellet was then thawed and rehomogenized in 25 volume (original wt/vol) of buffer and the procedure was carried out twice. The pellet was finally resuspended in 50 volumes (w/vol of 0.05M Tris HCl buffer containing 1 uM Ro 15-1788. 1 uM sodium ascorbate and 10 uM muscimol (pH 7.4 at 4° C.).
Incubation mixtures contained 400 μl of tissue homogenate. 5μl of 100 nM ligand in above buffer [final ligand concentration was 0.5 nM ^3 H-Compound 1 (specific activity 67 Ci/mmol)], drug or blocker and buffer to a total volume of 1 ml. Incubations were carried for 20 min at 4° C. then were rapidly filtered through GFB filters to separate free and bound ligand. Filters were washed twice with fresh 0.05M Tris HCl buffer (pH 7.4 at 4° C.) and counted in a liquid scintillation counter. 10 μM Compound 3 was added to some tubes to determine nonspecific binding. Data were collected in triplicate determinations, averaged and % inhibition of total specific binding was calculated. Total Specific Binding=Total-Nonspecific. Typically the specific binding represented about 75 to 85% of total binding. In some cases, the amounts of unlabeled drugs was varied and total displacement curves of binding were carried out. Data were convened to a form suitable for the calculation of IC50 and Hill Coefficient (nH). These IC 50's were convened to Ki's using the Cheng Prusoff equation (Cheng and Prussoff, 1973, Biochem. Pharmacol. 22: 3099.).

known GABAa receptors = conditions: Table II, no method given; cited from earlier work

| Structure (SMILES) | effect on benzodiazepine binding / on its enhancement by GABA agonists (in words) [1] | Ki (GABAa receptor subtype) [nM] | Ki (known GABAa receptors) [nM] |
| --- | --- | --- | --- |
| CN1CCc2cc3c(cc2C1C1OC(=O)c2c1ccc1c2OCO1)OCO3 (single isomer, unassigned; (+)) [(+) bicuculline] | blocked | – | – |
| CN1CCc2cc3c(cc2C1C1OC(=O)c2c1ccc1c2OCO1)OCO3 (single isomer, unassigned; (-)) [(-) bicuculline] | much less active | – | – |
| Cc1nnc2n1-c1ccc(Cl)cc1C(c1ccccc1)=NC2 [Alprazelam] | – | 8000 | – |
| CC(C)(C)OC(=O)c1ncn2c1[C@@H]1CCCN1C(=O)c1c(Br)cccc1-2 [Bretazenil] | – | 15000 | 1 |
| CCOc1ccc(-n2c(=O)c3c[nH]c4ccccc4n-3c2=O)cc1 [Compound 1, 2-(4-Ethoxyphenyl)imidazo[1,5.a]quinoxaline-1,3(2H,5H)-dione] | – | 0.5 | – |
| COc1ccc(F)c(-c2ncc3[nH]c4c(c3n2)CCCC4)c1 [Compound 2, 2-(2-Fluoro-5-methoxyphenyl)-6,7,g,9-tetrahydro-5H-indolo[3,2-d]-pyrimidine] | – | 3.9 | – |
| CCCOc1ccc(-n2c(=O)c3c[nH]c4ccccc4n-3c2=O)cc1 [Compound 3, 2-(4-Propyloxyphenyl)imidazo[1,5,a]quinoxaline-1,3(2H,5H)-dione] | – | 0.9 | – |
| CCOc1ccc(-n2c(=O)c3c[nH]c4cc(C)ccc4n-3c2=O)cc1 [Compound 4, 2-(4-Ethoxyphenyl)-7-methyl-imidazo[1,5,a]quinoxaline-1,3(2H,5H)-dione] | – | 0.5 | – |
| CCOc1ccc(-n2c(=O)c3cn(C)c4ccccc4n-3c2=O)cc1 [Compound 5, 2-(4-Ethoxyphenyl)-5-methyl-imidazo[1,5,a]quinoxaline-1,3(2H,5H)-dione] | – | 6 | – |
| COc1cccc(-n2c(=O)c3c[nH]c4ccccc4n-3c2=O)c1 [Compound 6, 2-(3-Methoxyphenyl)imidazo[1,5.a]quinoxaline-1,3(2H,5. H)-dione] | – | 0.55 | – |
| COc1cccc(-c2ncc3[nH]c4c(c3n2)CCCC4)c1 [Compound 7, 2-(3-Methoxyphenyl)-6,7,8,9-tetrahydro-5H-indolo[3.2-d]-pyrimidine] | – | 50 | – |
| CN1C(=O)CN=C(c2ccccc2)c2cc(Cl)ccc21 [Diazepam] | – | 5000 | 6 |
| CCOC(=O)c1ncn2c1CN(C)C(=O)c1cc(F)ccc1-2 [Flumazenil] | – | 7500 | 1 |
| NCCCC(=O)O [GABA, γ-Aminobutyric acid] | enhance the binding of benzodiazepines | – | – |
| Cc1ccc(-c2nc3ccc(C)cn3c2CC(=O)N(C)C)cc1 [Zolpidem] | – | 2200 | 20 |
